Results reported in patent publication US12089595B2, “Pseudomonas strains and their metabolites to control plant diseases” (T3 Bioscience, Inc., priority 2020, dated 2024).
Values after ≈ are worked out from the molar mass of the structure shown. Where two headings read alike, the source gives them in different places.

Key:
[1] = test system: Xanthomonas axonopodis pv. citri N40-SO5; test: MIC antimicrobial assay (CLSI, 96 well plates); assay type: cell-based
[2] = test system: Xanthomonas arboricola pv. Juglandis 219; test: MIC antimicrobial assay (CLSI, 96 well plates); assay type: cell-based
[3] = test system: Xanthomonas campestris pv. Pruni; test: MIC antimicrobial assay (CLSI, 96 well plates); assay type: cell-based; details: Xanthomonas campestris pv. Pruni (Bacterial Spot of Peach)
[4] = test system: Pectobacterium carotovorum subsp. carotovorum wpp14 945; test: MIC antimicrobial assay (CLSI, 96 well plates); assay type: cell-based; details: Pectobacterium carotovorum subsp. carotovorum wpp14 945 (soft rot)
[5] = test system: Clavibacter michiganensis subsp. michiganensis NCPPB382; test: MIC antimicrobial assay (CLSI, 96 well plates); assay type: cell-based
Erwinia amylovora 1189 = test: MIC antimicrobial assay (CLSI, 96 well plates); assay type: cell-based
[6] = test system: X. arboricola pv. Juglandis Xaj417; test: microbe, parasite or virus in culture; assay type: cell-based, Xanthomonas arboricola pv. Juglandis; details: Xanthomonas arboricola, read-out: Diameter of the zone of inhibition
[7] = test system: Flavobacterium columnare MS-FC-4; test: MIC antimicrobial assay (CLSI, 96 well plates); assay type: cell-based; details: MSFC4; Flavobacterium columnare MS-FC-4 (Fish columnaris disease), SHIEH
R. solanacearum Pss = test: microbe, parasite or virus in culture; assay type: cell-based; details: Ralstonia solanacearum, read-out: Diameter of the zone of inhibition
[8] = test system: P. syringae (pv. tomato PT30, pv syringae 7046, pv. lachrymans 1188-1); test: MIC antimicrobial assay; details: Pseudomonas syringae
[9] = test system: Xanthomonas axonopodis pv. citri-Miami XC2002-00010; test: MIC antimicrobial assay (CLSI, 96 well plates); assay type: cell-based
Dickeya dadantii 3937 = test: MIC antimicrobial assay (CLSI, 96 well plates); assay type: cell-based; details: Dickeya dadantii 3937 (soft rot)
E. amylovora 110 = test: Greenhouse blossom blight assay on crabapples trees (RejuAgro A); assay type: in vivo, Erwinia amylovora
Experimental: To evaluate the biological control activity of RejuAgro A against Erwinia amylovora, greenhouse infection assay on crabapples trees was conducted at the University of Wisconsin-Milwaukee. Ten μg/mL was supplemented with 1% Polyethylene glycol (PEG) 4000 or 1% PEG4000 (negative control) were applied on full bloom trees flowers 3 hours prior to the inoculation and 24 hours post-inoculation. Approximately 10^8 CFU/mL of E. amylovora 110 strain resuspended in water was used as inoculum. The infection rate was calculated at around day 6 post inoculation. RejuAgro A can effectively suppress the blossom blight (Table 6).

[10] = test system: Pseudomonas syringae pv. tomato PT30; test: MIC antimicrobial assay (CLSI, 96 well plates); assay type: cell-based; details: Pseudomonas syringae pv. tomato PT30 (Tomato bacterial speck)
[11] = test system: Pectobacterium parmentieri UPP163 936; test: MIC antimicrobial assay (CLSI, 96 well plates); assay type: cell-based; details: UPP163936; Pectobacterium parmentieri UPP163 936 (soft rot)
[12] = test system: Pectobacterium atrosepticum 942; test: MIC antimicrobial assay (CLSI, 96 well plates); assay type: cell-based; details: Pectobacterium atrosepticum 942 (soft rot)
[13] = test system: Flavobacterium columnare #2; test: MIC antimicrobial assay (CLSI, 96 well plates); assay type: cell-based; details: Flavobacterium columnare #2 (Fish columnaris disease), TYES
[14] = test system: Erwinia amylovora CA11 (streptomycin-resistant); test: microbe, parasite or virus in culture; assay type: cell-based
[15] = test system: Pseudomonas syringae pv. lachrymans 1188-1; test: MIC antimicrobial assay (CLSI, 96 well plates); assay type: cell-based; details: Pseudomonas syringae pv. lachrymans 1188-1 (Angular Leaf Spot of Cucurbits)
[16] = test system: Pseudomonas syringae pv syringae 7046; test: MIC antimicrobial assay (CLSI, 96 well plates); assay type: cell-based; details: Pseudomonas syringae pv syringae 7046 (Bacterial canker or blast)
R. solanacearum K60 = test: microbe, parasite or virus in culture; assay type: cell-based; details: Ralstonia solanacearum, K60, read-out: Diameter of the zone of inhibition
Erwinia amylovora 110 = test: microbe, parasite or virus in culture; assay type: cell-based
[17] = test system: Erwinia amylovora 898 (streptomycin-resistant); test: microbe, parasite or virus in culture; assay type: cell-based
E. amylovora = test: Plate diffusion assay in LB plates; assay type: cell-based, Erwinia amylovora; details: 2 mg/mL; for zone of inhibition at 2000 µg/mL: Erwinia amylovora, read-out: Diameter of the Inhibitory zone
From the text: Two assays were used for the antimicrobial test of 0617-T307 cell broth and metabolites. One is plate diffusion assay and the other one is microplate assay. LB plate was used for the plate diffusion assay of the antimicrobial activity of RejuAgro A containing fractions and cell broths against E. amylovora (Table 3).

[18] = test system: Xanthomonas bacteria (Xanthomonas axonopodis pv. citri); test: MIC antimicrobial assay; assay type: cell-based
[19] = test system: Pseudomonas soli 0617-T307; test: MIC antimicrobial assay (CLSI, 96 well plates)
[20] = test system: Pseudomonas savastanoi pv. savastanoi; test: MIC antimicrobial assay (CLSI, 96 well plates); assay type: cell-based
E coli O157:H7 = test: MIC antimicrobial assay (CLSI, 96 well plates); assay type: cell-based
[21] = test system: Pectobacterium carotovorum subsp. brasiliensis 944; test: MIC antimicrobial assay (CLSI, 96 well plates); assay type: cell-based; details: Pectobacterium carotovorum subsp. brasiliensis 944 (soft rot)
[22] = test system: Clavibacter michiganensis subsp. michiganensis Cmm 0317; test: MIC antimicrobial assay (CLSI, 96 well plates); assay type: cell-based
[23] = test system: Xanthomonas campestris pv. vesicatoria XV-16; test: MIC antimicrobial assay (CLSI, 96 well plates); assay type: cell-based; details: Xanthomonas campestris pv. vesicatoria XV-16 (Tomato bacterial spot)
[24] = test system: Clavibacter michiganensis subsp. michiganensis Cmm 0690; test: MIC antimicrobial assay (CLSI, 96 well plates); assay type: cell-based
[25] = test system: Erwinia amylovora DM1 (streptomycin-resistant); test: microbe, parasite or virus in culture; assay type: cell-based

Row | Compound | MIC [1] | MIC ([3]; read-out: MIC) | MIC [4] | MIC [5] | MIC [7] | MIC [8] | MIC [9] | MIC (Dickeya dadantii 3937) | MIC [10] | MIC [11] | MIC [12] | MIC [13] | MIC ([14]; Erwinia amylovora) | MIC [15] | MIC [16] | MIC (Erwinia amylovora 110) | MIC ([17]; Erwinia amylovora) | zone of inhibition at 2000 µg/mL (E. amylovora) | MIC [18] | MIC ([19]; Pseudomonas soli, 0617T307) | also measured
1 | CSC1=C(C)C(=O)C(=O)NC1=O [RejuAgro A] | 5 µg/mL (≈ 27 µM) | 40 µg/mL (≈ 216 µM) | 40 µg/mL (≈ 216 µM) | 6.25 µg/mL (≈ 33.7 µM) | 5 µg/mL (≈ 27 µM) | 40 µg/mL (≈ 216 µM) | 5 µg/mL (≈ 27 µM) | 40 µg/mL (≈ 216 µM) | 40 µg/mL (≈ 216 µM) | 40 µg/mL (≈ 216 µM) | 20 µg/mL (≈ 108 µM) | 5 µg/mL (≈ 27 µM) | 10 µg/mL (≈ 54 µM) | 10 µg/mL (≈ 54 µM) | 20 µg/mL (≈ 108 µM) | 5 µg/mL (≈ 27 µM) | 10 µg/mL (≈ 54 µM) | 11 mm | 5 µg/mL (≈ 27 µM) | > 40 µg/mL | MIC ([2]; Xanthomonas arboricola): 6.25 µg/mL (≈ 33.7 µM); MIC (Erwinia amylovora 1189; Erwinia amylovora, 1189, Erwinia amylovora 1189 (Fire blight on apples/pears)): 5 µg/mL (≈ 27 µM); zone of inhibition at 2000 µg/mL [6]: 10 mm; zone of inhibition at 2000 µg/mL (R. solanacearum Pss): 5 mm; Infection rate (E. amylovora 110; 10 μg/mL with 1% PEG4000, 3 hours prior and 24 hours post-inoculation, around day 6, negative control 50.8%): 12.3%; zone of inhibition at 2000 µg/mL (R. solanacearum K60): 4 mm; Diameter of the Inhibitory zone (E. amylovora): showed the antimicrobial activity; MIC ([19]; Pseudomonas soli 0617-T307 (RejuAgro A producer), LB media): >40 µg/mL; MIC ([20]; Pseudomonas savastanoi): 40 µg/mL (≈ 216 µM); MIC (E coli O157:H7): 40 µg/mL (≈ 216 µM); MIC [21]: 40 µg/mL (≈ 216 µM); MIC [22]: 1.56 µg/mL (≈ 8.42 µM); MIC [23]: 2.5 µg/mL (≈ 13.5 µM); MIC [24]: 12.5 µg/mL (≈ 67.5 µM); MIC ([25]; Erwinia amylovora): 10 µg/mL (≈ 54 µM)
2 | [H]/N=C(/N)N[C@H]1[C@H](O)[C@@H](O)[C@H](O[C@@H]2O[C@@H](C)[C@](O)(C=O)[C@H]2O[C@@H]2O[C@@H](CO)[C@H](O)[C@@H](O)[C@@H]2NC)[C@@H](N/C(N)=N\[H])[C@@H]1O [Streptomycin, reference compound] | 0.16 µg/mL (≈ 0.275 µM) | > 40 µg/mL | 40 µg/mL (≈ 68.8 µM) | 12.5 µg/mL (≈ 21.5 µM) | 1.25 µg/mL (≈ 2.15 µM) | 2.5 to 5 µg/mL (≈ 4.3 to 8.6 µM) | 0.16 µg/mL (≈ 0.275 µM) | 20 µg/mL (≈ 34.4 µM) | 2.5 µg/mL (≈ 4.3 µM) | 40 µg/mL (≈ 68.8 µM) | 20 µg/mL (≈ 34.4 µM) | 0.31 µg/mL (≈ 0.533 µM) | > 40 µg/mL | 5 µg/mL (≈ 8.6 µM) | 2.5 µg/mL (≈ 4.3 µM) | 5 µg/mL (≈ 8.6 µM) | > 40 µg/mL | 24 mm | 0.16 µg/mL (≈ 0.275 µM) | > 40 µg/mL | MIC ([2]; Xanthomonas arboricola pv. Juglandis 219 (walnut blight), read-out: MIC): 0.39 µg/mL (≈ 0.671 µM); MIC [3]: >40 µg/mL; MIC (Erwinia amylovora 1189; Erwinia amylovora 1189 (Fire blight on apples/pears)): 20 µg/mL (≈ 34.4 µM); MIC (Erwinia amylovora 1189; Erwinia amylovora, 1189, Erwinia amylovora 1189 (Fire blight on apples/pears), read-out: MIC): 10 µg/mL (≈ 17.2 µM); zone of inhibition at 100 µg/mL [6]: 19 mm; zone of inhibition at 100 µg/mL (R. solanacearum Pss): 15 mm; Infection rate (E. amylovora 110; 200 μg/mL, around day 6 post inoculation): 5.7%; MIC ([14]; Erwinia amylovora CA11, streptomycin-resistant): >40 µg/mL; zone of inhibition at 100 µg/mL (R. solanacearum K60): 15 mm; MIC ([17]; Erwinia amylovora 898, spontaneous streptomycin-resistant): >40 µg/mL; MIC ([20]; Pseudomonas savastanoi pv. savastanoi (Olive knot), read-out: MIC): 0.31 µg/mL (≈ 0.533 µM); MIC (E coli O157:H7): 20 µg/mL (≈ 34.4 µM); MIC [21]: 40 µg/mL (≈ 68.8 µM); MIC [22]: 3.12 µg/mL (≈ 5.36 µM); MIC [23]: 20 µg/mL (≈ 34.4 µM); MIC [24]: 12.5 µg/mL (≈ 21.5 µM); MIC ([25]; Erwinia amylovora): > 40 µg/mL; MIC ([25]; Erwinia amylovora DM1, streptomycin-resistant): >40 µg/mL
